According to patent publication US9695155B2, “Herbicidal substituted pyrimidinyloxy benzene compounds” (E. I. DU PONT DE NEMOURS AND COMPANY, priority 2013, dated 2017):

Key:
kochia = test: Test C postemergence; assay type: in vivo, Kochia scoparia; settings: Bassia scoparia, post-emergence
Summary of the method: (§1)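 Preemergence: seeds sown in a loam soil–sand blend and sprayed with test chemical in a non-phytotoxic solvent mixture containing surfactant. Postemergence: plants at 2 to 18 cm (1- to 4-leaf stage) in peat-based medium, treated with the same formulation. Greenhouse 13 to 15 days, then visual rating 0 (no effect) to 100 (complete control).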

pigweed = test: Test C preemergence; assay type: in vivo, Amaranthus retroflexus; settings: Amaranthus retroflexus, pre-emergence
Summary of the method: as §1

corn [1] = test: Test C preemergence; assay type: in vivo, Zea mays; settings: Zea mays, pre-emergence
Summary of the method: as §1

giant foxtail [2] = test: Test C postemergence; assay type: in vivo, Setaria faberii; settings: Setaria faberi, post-emergence
Summary of the method: as §1

yellow nutsedge = test: Test C postemergence; assay type: in vivo, Cyperus esculentus; settings: Cyperus, post-emergence
Summary of the method: as §1

blackgrass = test: Test C postemergence; assay type: in vivo, Alopecurus myosuroides; settings: Alopecurus myosuroides, post-emergence
Summary of the method: as §1

large (Lg) crabgrass = test: Test C preemergence; assay type: in vivo, Digitaria sanguinalis; settings: Digitaria sanguinalis, pre-emergence
Summary of the method: as §1

lambsquarters = test: Test C preemergence; assay type: in vivo, Chenopodium album; settings: Chenopodium album, pre-emergence
Summary of the method: as §1

wheat, winter = test: Test C postemergence; assay type: in vivo, Triticum aestivum; settings: Triticum aestivum, post-emergence
Summary of the method: as §1

giant foxtail [3] = test: Test A postemergence; assay type: in vivo, Setaria faberii; settings: Setaria faberi, post-emergence, 240 h
Summary of the method: (§2)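 Pre- and postemergence greenhouse screen. Soil: loam + sand. Spray carrier: solvent mixture, non-phytotoxic, with surfactant. Post timing at 1–2 leaves, height 2–10 cm. Readout: visual injury on a 0–100 scale roughly 10 days after application, untreated plants as reference.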

corn [4] = test: Test A postemergence; assay type: in vivo, Zea mays; settings: Zea mays, post-emergence, 240 h
Summary of the method: as §2

corn [5] = test: Test C postemergence; assay type: in vivo, Zea mays; settings: Zea mays, post-emergence
Summary of the method: as §1

SMILES: Clc1cnc(Oc2ccccc2-n2cc(Br)cn2)nc1 [Compound 7, 2-[2-(4-bromo-1H-pyrazol-1-yl)phenoxy]-5-chloropyrimidine]
- pest or weed control at 125 g/ha (kochia; 125 g ai/ha, postemergence, read-out: Plant response rating (0 to 100), Kochia): 100%
- pest or weed control at 250 g/ha (kochia; 250 g ai/ha, postemergence, read-out: Plant response rating (0 to 100), Kochia): 100%
- pest or weed control at 31 g/ha (kochia; Postemergence, 31 g ai/ha, scale 0 to 100 (0 no effect, 100 complete control), 13 to 15 days, read-out: Plant response rating, Kochia): 98%
- pest or weed control at 62 g/ha (kochia; Postemergence, 62 g ai/ha, scale 0 to 100 (0 no effect, 100 complete control), read-out: Plant response rating, Kochia): 98%
- pest or weed control at 62 g/ha (pigweed; 62 g ai/ha, preemergence, scale 0 (no effect) to 100 (complete control), read-out: Pigweed plant response rating): 100%
- pest or weed control at 125 g/ha (pigweed; 125 g ai/ha, preemergence, scale 0 (no effect) to 100 (complete control), read-out: Pigweed plant response rating): 100%
- pest or weed control at 250 g/ha (pigweed; 250 g ai/ha, preemergence, scale 0 (no effect) to 100 (complete control), read-out: Pigweed plant response rating): 100%
- pest or weed control at 31 g/ha (pigweed; Preemergence, 31 g ai/ha, scale 0 to 100, 0 no effect, 100 complete control, read-out: Plant response rating, Pigweed): 100%
- plant injury at 62 g/ha (corn [1]; 62 g ai/ha, preemergence, scale 0 (no effect) to 100 (complete control), read-out: Corn plant response rating): 5%
- plant injury at 125 g/ha (corn [1]; 125 g ai/ha, preemergence, scale 0 (no effect) to 100 (complete control), read-out: Corn plant response rating): 5%
- plant injury at 250 g/ha (corn [1]; 250 g ai/ha, preemergence, scale 0 (no effect) to 100 (complete control), read-out: Corn plant response rating): 5%
- Corn plant response rating (crop injury, 0 = no effect, 100 = complete kill) at 31 g/ha (corn [1]; Preemergence, 31 g ai/ha, scale 0 to 100, 0 no effect, 100 complete control): 0%
- pest or weed control at 125 g/ha (giant foxtail [2]; 125 g ai/ha, postemergence, read-out: Plant response rating (0 to 100), Foxtail, Giant): 10%
- pest or weed control at 250 g/ha (giant foxtail [2]; 250 g ai/ha, postemergence, read-out: Plant response rating (0 to 100), Foxtail, Giant): 10%
- pest or weed control at 31 g/ha (giant foxtail [2]; Postemergence, 31 g ai/ha, scale 0 to 100 (0 no effect, 100 complete control), 13 to 15 days, read-out: Plant response rating, Foxtail, Giant): 0%
- pest or weed control at 62 g/ha (giant foxtail [2]; Postemergence, 62 g ai/ha, scale 0 to 100 (0 no effect, 100 complete control), read-out: Plant response rating, Foxtail, Giant): 5%
- pest or weed control at 125 g/ha (yellow nutsedge; 125 g ai/ha, postemergence, read-out: Plant response rating (0 to 100), Nutsedge, Yellow): 15%
- pest or weed control at 250 g/ha (yellow nutsedge; 250 g ai/ha, postemergence, read-out: Plant response rating (0 to 100), Nutsedge, Yellow): 20%
- pest or weed control at 31 g/ha (yellow nutsedge; Postemergence, 31 g ai/ha, scale 0 to 100 (0 no effect, 100 complete control), 13 to 15 days, read-out: Plant response rating, Nutsedge, Yellow): 10%
- pest or weed control at 62 g/ha (yellow nutsedge; Postemergence, 62 g ai/ha, scale 0 to 100 (0 no effect, 100 complete control), read-out: Plant response rating, Nutsedge, Yellow): 15%
- pest or weed control at 125 g/ha (blackgrass; 125 g ai/ha, postemergence, read-out: Plant response rating (0 to 100), Blackgrass): 45%
- pest or weed control at 250 g/ha (blackgrass; 250 g ai/ha, postemergence, read-out: Plant response rating (0 to 100), Blackgrass): 50%
- pest or weed control at 31 g/ha (blackgrass; Postemergence, 31 g ai/ha, scale 0 to 100 (0 no effect, 100 complete control), 13 to 15 days, read-out: Plant response rating, Blackgrass): 5%
- pest or weed control at 62 g/ha (blackgrass; Postemergence, 62 g ai/ha, scale 0 to 100 (0 no effect, 100 complete control), read-out: Plant response rating, Blackgrass): 10%
- pest or weed control at 62 g/ha (large (Lg) crabgrass; 62 g ai/ha, preemergence, scale 0 (no effect) to 100 (complete control), read-out: Crabgrass, Large plant response rating): 98%
- pest or weed control at 125 g/ha (large (Lg) crabgrass; 125 g ai/ha, preemergence, scale 0 (no effect) to 100 (complete control), read-out: Crabgrass, Large plant response rating): 100%
- pest or weed control at 250 g/ha (large (Lg) crabgrass; 250 g ai/ha, preemergence, scale 0 (no effect) to 100 (complete control), read-out: Crabgrass, Large plant response rating): 100%
- pest or weed control at 31 g/ha (large (Lg) crabgrass; Preemergence, 31 g ai/ha, scale 0 to 100, 0 no effect, 100 complete control, read-out: Plant response rating, Crabgrass, Large): 80%
- pest or weed control at 62 g/ha (lambsquarters; 62 g ai/ha, preemergence, scale 0 (no effect) to 100 (complete control), read-out: Lambsquarters plant response rating): 80%
- pest or weed control at 125 g/ha (lambsquarters; 125 g ai/ha, preemergence, scale 0 (no effect) to 100 (complete control), read-out: Lambsquarters plant response rating): 85%
- pest or weed control at 250 g/ha (lambsquarters; 250 g ai/ha, preemergence, scale 0 (no effect) to 100 (complete control), read-out: Lambsquarters plant response rating): 95%
- pest or weed control at 31 g/ha (lambsquarters; Preemergence, 31 g ai/ha, scale 0 to 100, 0 no effect, 100 complete control, read-out: Plant response rating, Lambsquarters): 80%
- plant injury at 125 g/ha (wheat, winter; 125 g ai/ha, postemergence, read-out: Plant response rating (0 to 100), Wheat): 10%
- plant injury at 250 g/ha (wheat, winter; 250 g ai/ha, postemergence, read-out: Plant response rating (0 to 100), Wheat): 15%
- plant injury at 31 g/ha (wheat, winter; Postemergence, 31 g ai/ha, scale 0 to 100 (0 no effect, 100 complete control), 13 to 15 days, read-out: Plant response rating, Wheat): 5%
- plant injury at 62 g/ha (wheat, winter; Postemergence, 62 g ai/ha, scale 0 to 100 (0 no effect, 100 complete control), read-out: Plant response rating, Wheat): 5%
- pest or weed control at 125 g/ha (giant foxtail [3]; 125 g ai/ha, 0 to 100 scale where 0 is no effect and 100 is complete control, read-out: Plant response rating, Foxtail, Giant): 90%
- pest or weed control at 500 g/ha (giant foxtail [3]; 500 g ai/ha, 0 to 100 scale, 0 no effect, 100 complete control, read-out: Plant response rating Foxtail, Giant): 100%
- Corn plant response rating (crop injury, 0 = no effect, 100 = complete kill) at 125 g/ha (corn [4]; 125 g ai/ha, 0 to 100 scale where 0 is no effect and 100 is complete control): 30%
- plant injury at 500 g/ha (corn [4]; 500 g ai/ha, 0 to 100 scale, 0 no effect, 100 complete control, read-out: Plant response rating Corn): 50%
- plant injury at 125 g/ha (corn [5]; 125 g ai/ha, postemergence, read-out: Plant response rating (0 to 100), Corn): 60%
- plant injury at 250 g/ha (corn [5]; 250 g ai/ha, postemergence, read-out: Plant response rating (0 to 100), Corn): 75%
- Corn plant response rating (crop injury, 0 = no effect, 100 = complete kill) at 62 g/ha (corn [5]; Postemergence, 62 g ai/ha, scale 0 to 100 (0 no effect, 100 complete control)): 25%
